Results on 1 compound are retold here after patent US20200170932A1, “EXTENDED RELEASE L-TRI-IODOTHYRONINE SAFELY NORMALIZES KEY ELEMENTS OF MOLECULAR PATHOLOGY IN ALZHEIMERS DISEASE” (priority 2018, published 2020).

The subject of one data set is patients with AD. As to the kind of experiment: Administering T3 to patients with AD (clinical observation). The data set is classed as in vivo, human. The text has this: The noradrenerigic neurotransmitter system is dependent on normal thyroid hormone activity for normal function. A deficient amount of thyroid hormone activity leads to downregulation of the noradrenergic system. This leads to attenuated postsynaptic effects and a failure to prosecute the noradrenergic mandate. In AD this phenomenon accounts for various signs and symptoms. There are aberrations of the diurnal rhythm including insomnia and daytime somnolence. Depression and/or anxiety may occur. Drooping of the upper eyelid (ptosis) is frequently seen in AD. The levator palpebrae superioris muscle, the elevator of the upper eyelid, is partially innervated by the sympathetic nervous system.

The conditions of data set [1]: following ingestion; cited from earlier work.
A further data set deals with rat model of AD. The note with it: rat model of AD (Sarkar); cited from earlier work.
For data set [2] the following is noted: compounding pharmacies' technology, personal communication; cited from earlier work.

On to `N[C@@H](Cc1cc(I)c(Oc2ccc(O)c(I)c2)c(I)c1)C(=O)O` [T3, 3,5,3′-triiodothyronine], for which the “countenance and alertness (ptosis, adrenergic dysregulation)” value in the data set on patients with AD is “rapid, within days, and dramatic wide-eyed countenance and an appearance of increased alertness”. For the same compound, in data set [1], the “time to peak levels” value is listed as “one to two”. In addition, the “histology, memory and electrophysiological activity in the cholinergic system” value with rat model of AD was “improved histology, memory and electrophysiological activity in the cholinergic system”. Besides, the “time of release to completion” value in data set [2] is 2 to 8 h.
